# Earlier results as cited in patent US20050065175A1 (Xanodyne Pharmacal, Inc., priority 2003, published 2005).
# Counter-ions that a name gives are not always drawn.
# Columns and labels:
# [1] = water and ethanol
# [2] = orally administered tablets, absorption through GI tract
SMILES,solubility [1],time until methadone can be detected in blood plasma after ingestion [2] [min],bioavailability of oral transmucosal methadone (oral cavity fluid pH between about 7 and about 10),oral bioavailability of methadone (oral cavity pH about 8 to about 9) [%],bioavailability via the oral transmucosal route (pH about 6.5 to about 6.9 (normal saliva)),bioavailability via the oral mucosa (pH of about 8.5),portion of the orally bioavailable methadone in the bloodstream (within the first 2.5 minutes of delivery to the mucosal tissue)
CCC(=O)C(CC(C)N(C)C)(c1ccccc1)c1ccccc1 (stereo not shown) [Methadone hydrochloride],soluble in water and ethanol,,,,,,
CCC(=O)C(CC(C)N(C)C)(c1ccccc1)c1ccccc1 (stereo not shown) [methadone],,≤ 30,50-75%,≤ 75,about 34%,about 75%,50-70%
